Test results as given in patent publication US20090130707A1, “Methods of reducing the inhibitory effect of a redox active metal ion on the enzymatic hydrolysis of cellulosic material” (priority 2007, published 2009).

Key:
[1] = Hydrolysis of PCS stripped with chelator; type: biochemical; conditions: PCS (43 g per liter) stripped overnight with 10 mM chelator, then washed
Procedure: To test whether there was any significant amount of (accessible) Fe(II) in PCS, and whether stripping it with a chelator would improve PCS hydrolysis, washed PCS (43 g per liter) was “stripped” with 10 mM 2,2′-bipyridyl, 1,10-phenanthroline, or 1,7-phenanthroline. After overnight pre-incubation, the PCS was extensively washed to remove the chelator. The hydrolysis was performed in a series of duplicate “mini-scale” hydrolysis reactions performed according to the procedure described in Example 30.

[2] = tested on: Cellulolytic Enzyme Composition #1; assay: mini-scale PCS hydrolysis by Cellulolytic Enzyme Composition #1; type: biochemical, Trichoderma reesei; conditions: PCS hydrolysis (FIGS. 23A-23D)
Procedure: (§1) The effect of various salts (FeSO4, FeCl2, NaCl, Na2SO4, MnSO4, MnCl2) was determined in the hydrolysis of PCS by Cellulolytic Enzyme Composition #2. The PCS hydrolysis was performed in duplicate in capped 1.7 ml EPPENDORF® tubes (“mini-scale”) containing 1 ml suspensions of 43.4 g of PCS (dry weight) per liter, 10 mM salts in 50 mM sodium acetate pH 5. Cellulolytic Enzyme Composition #2 was added at 0.25 g per liter. Reactions without the addition of the salt served as controls. The capped tubes were incubated at 50° C. in an INNOVA® 4080 incubator shaker (New Brunswick Scientific Co., Inc., Edison, N.J., USA) at 150 rpm.
Aliquots of the suspensions, sampled over time, were filtered by centrifugation using a 0.45 μm MULTISCREEN® HV membrane (Millipore, Billerica, Mass., USA) at 2000 rpm for 15 minutes using a SORVALL® RT7 centrifuge (Thermo Fisher Scientific, Waltham, Mass., USA). When not used immediately, the filtered sugary aliquots were frozen at −20° C. Sugar concentrations of the samples diluted in 0.005 M H2SO4 were measured after elution from a 4.6×250 mm AMINEX® HPX-87H column (Bio-Rad, Hercules, Calif., USA) by 0.005 M H2SO4 at a flow rate of 0.4 ml/minute at 65° C. with quantitation by integration of glucose and cellobiose using refractive index detection (CHEMSTATION®, AGILENT® 1100 HPLC, Agilent Technologies, Santa Clara, Calif., USA) calibrated with standards of glucose and cellobiose. The resultant equivalents were used to calculate the percentage of cellulose conversion for each reaction.
Example 30 was repeated with both Cellulolytic Enzyme Composition #1 and Cellulolytic Enzyme Composition #2. Soluble reducing sugars were measured by HPLC as described in Example 30. Reactions without the addition of FeSO4 served as controls.
The hydrolysis was performed in a series of duplicate “mini-scale” hydrolysis reactions according to the procedure described in Example 30.

[3] = tested on: Cellulolytic Enzyme Composition #1; assay: mini-scale AVICEL hydrolysis by Cellulolytic Enzyme Composition #1; type: biochemical, Trichoderma reesei; conditions: 3 mM; 23 g AVICEL and 0.25 g enzyme per liter
Procedure: FIGS. 19A, 19B, 19C, and 19D show the effective inhibitory concentration range of Fe(II) on the hydrolysis of AVICEL® by Cellulolytic Enzyme Composition #1 (A and B) and on the hydrolysis of PASC by Cellulolytic Enzyme Composition #1 (C and D). The AVICEL® hydrolysis was conducted with […] of AVICEL® and 0.25 g of Cellulolytic Enzyme Composition #1 per liter of 50 mM sodium acetate pH 5 at 50° C. FeSO4 (mM): (∘) 0, (+) 1, (Δ) 3, (⋄) 5, (□) 10. Dixon plot linear regression line: 1/Rate=(0.035±0.003)[Fe(II)]+(0.043±0.015), r^2=0.978. Rate was estimated from the hydrolysis difference (%) at 24 and 6 hours. The PASC hydrolysis was conducted with 2 g of PASC and 50 mg of Cellulolytic Enzyme Composition #1 per liter of 50 mM sodium acetate pH 5 at 50° C. Dixon plot linear regression line: 1/Rate=(0.0042±0.0003)[Fe(II)]+(0.059±0.002), r^2=0.994. Rates were estimated from the hydrolysis difference (%) at 7 hours.
as §1
In one series of “mini-scale” hydrolysis reactions performed according to the procedure described in Example 30, the effect of 1 mM to 10 mM FeSO4 was evaluated in the hydrolysis of AVICEL® by Cellulolytic Enzyme Composition #1.

With `c1ccc(-c2ccccn2)nc1` [2,2′-bipyridyl] the “increase in hydrolysis extent” value [1] was “approximately 4%”, the “Effect of chelator on enzyme in the absence of FeSO4” value [2] was “significant inhibition” and the “Effect on AVICEL hydrolysis” value [3] was “No significant inhibition”.
